The results in this text go back to patent US20250170101A1, “MONOACYLGLYCEROL LIPASE INHIBITORS AND USE THEREOF FOR THE TREATMENT AND MANAGEMENT OF PAIN AND RELATED CONDITIONS” (Psy Therapeutics, Inc., priority 2021, published 2025).

Read-outs that look alike come from different tables or passages of the source.

The nature of data set [1]: Plasma and brain concentrations after single intraperitoneal administration, Examples 23 and 24. In kind it is in vivo, male C57BL/6 mice. The conditions noted are these: male, C57BL/6, mouse, IP 20 mg/kg. How it is done: This experiment was performed to determine plasma pharmacokinetics and estimate 2-AG levels in male C57BL/6 mice brain following a single intraperitoneal administration of Compound-74 (Dose: 5, 15, 50 and 150 mg/kg). The experiment was repeated at 150 mg/kg on 3 separate test dates to obtain the data shown in FIG. 1A (plasma and brain concentration of Compound 74 30 minutes after IP injection), and on the first and third test dates to obtain the data shown in FIG. 1B (brain concentration of 2-AG30 minutes after IP injection of Compound 74). • Compound 74, Molecular Wt.: 405.46 (Freebase), % Purity: Considered 100%. • Formulation: DMSO • Dose: 5, 15, 50 and 150 mg/kg • Dose volume: 2 mL/kg • Feeding regimen: freely fed • Groups:
Study Design: A total of thirty male mice were used into the study and divided in to five groups with six mice in each group (n=6 mice/group/treatment design). Animals in Group 1 to Group 4 were administered intraperitoneally with Compound 74 solution formulation at 5, 15, 50 and 150 mg/kg dose, respectively. Animals in Group 5 were administered intraperitoneally with vehicle at 2 mL/kg dose. Blood and brain samples were collected at 0.5 h post dose. Mice were euthanized by cervical dislocation and brain samples were dissected rapidly and snap frozen in liquid nitrogen, weighed and homogenized in 2 mL of acetonitrile containing 2-AGd5. Blood samples were centrifuged at 4000 rpm for 10 minutes at 4° C. Plasma was harvested and separated in pre-labeled tubes. All samples were stored below −70° C. until bioanalysis.
Analysis: Brain samples were processed for 2-AG estimation. 2-AG levels were the detected values. Plasma concentrations were determined by fit for purpose LC-MS/MS method. LLOQ: 5.09 ng/mL (Plasma and brain)
This experiment was performed to determine plasma pharmacokinetics and estimate 2-AG levels in male C57BL/6 mice brain following a single intraperitoneal administration of Compound-473 (Dose: 20 mg/kg). • Compound 473, Molecular Wt.: 463.41 (Freebase), % Purity: >98%. • Formulation: DMSO • Dose: 20 mg/kg • Dose volume: 10 mL/kg • Feeding regimen: Food and water ad libitum • Groups:
Study Design: A total of twelve C57BL/6 male mice were used in this study. Six animals were administered intraperitoneally with solution formulation of PSY-05-00473-002 at 20 mg/kg dose. Six animals were administered vehicle (5% NMP, 5% Solutol HS15 and 90% Normal saline) intraperitoneally at 10 mL/kg dose volume. Blood samples (approximately 60 μL) were collected under light isoflurane anesthesia from a set of six mice at 0.5 h. Plasma was harvested by centrifugation of blood and stored at −70±10° C. until analysis. After blood collection, mice were euthanized by cervical dislocation and brain samples were dissected rapidly and snapped frozen in liquid nitrogen and stored at −80. To homogenize, removed brain samples from the freezer, were divided into two equal hemispheres and weighed while still in frozen condition, and begun homogenization/extraction procedure without allowing the brain samples to thaw. One part is used for PK estimation and the other part is used for 2-AG estimation.
Analysis: For PK estimation, brain samples were homogenized in 2 volumes of PBS of brain weight. Total homogenate volume was three times of the brain weight. For 2-AG estimation, the frozen brain samples were homogenized in 2 mL acetonitrile containing 2-AGd5 (8.88 nmoles) will be incubated overnight at −20° C. to precipitate proteins. Blood samples were centrifuged at 10000 rpm for 10 minutes at 4° C. All samples were stored below −70° C. until bioanalysis. Plasma and brain homogenate samples were quantified by fit-for-purpose LC-MS/MS method (LLOQ: 1.02 ng/mL for plasma and 2.03 ng/mL for brain).

Data set [2] deals with T1, MAGL enzyme (Homo sapiens, UniProt Q99685).
T1 sequence (Q99685 1-303): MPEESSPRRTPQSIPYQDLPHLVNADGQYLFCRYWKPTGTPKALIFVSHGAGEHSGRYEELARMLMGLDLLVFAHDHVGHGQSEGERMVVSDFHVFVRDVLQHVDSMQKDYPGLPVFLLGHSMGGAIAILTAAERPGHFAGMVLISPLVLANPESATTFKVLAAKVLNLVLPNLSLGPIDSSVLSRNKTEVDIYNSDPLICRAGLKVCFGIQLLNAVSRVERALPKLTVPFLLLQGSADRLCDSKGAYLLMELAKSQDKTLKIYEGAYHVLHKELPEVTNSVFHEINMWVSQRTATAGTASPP
The experiment in a line: MAGL reversible inhibition assay (washout), Example 22. In kind it is biochemical. More on the design: % MAGL activity returning after washout: concentration or dose not given beside the values.

For the compound `O=C(c1cc(O)ccc1F)N1CC2(CC(n3cc(C(F)(F)F)c(-c4ccccc4F)n3)C2)C1` (single isomer, unassigned) [Compound 473, (2-fluoro-5-hydroxyphenyl){6-[3-(o-fluorophenyl)-4-(trifluoromethyl)-1-pyrazolyl]-2-aza-2-spiro[3.3]heptyl}methanone], the concentration at 0.5 h in data set [1] (brain, read-out: Brain Concentration (ng/g), Mean) was found to be 2630 ng/g; in data set [1] (plasma, read-out: Plasma Concentration (ng/mL), Mean), 1820 ng/mL. The Kp at 0.5 h in data set [1] (brain/plasma, read-out: Brain/Plasma Ratio (kp), Mean) was found to be 1.44. In addition, the “degree to which MAGL enzymatic activity returned following washout of test compounds” value in data set [2] (pre-washout compound concentration 1 μM) is recorded as 41. Further, the “% MAGL activity returning after washout” value in data set [2] (relative to control (no inhibitor before washout), immediately following 30 minute washout) is given as under 50%.
